These results are taken from patent publication US20090281126A1, “Organic Compounds” (Novartis AG, priority 2006, published 2009).

For test [1] the following is noted: as described in WO 95/02604, cited from earlier work.
Another test has as its target T1, human A3 receptors (Homo sapiens, UniProt P0DMS8).
T1 construct: expressed in transfected cells; membranes prepared in house
T1 sequence (P0DMS8 1-318): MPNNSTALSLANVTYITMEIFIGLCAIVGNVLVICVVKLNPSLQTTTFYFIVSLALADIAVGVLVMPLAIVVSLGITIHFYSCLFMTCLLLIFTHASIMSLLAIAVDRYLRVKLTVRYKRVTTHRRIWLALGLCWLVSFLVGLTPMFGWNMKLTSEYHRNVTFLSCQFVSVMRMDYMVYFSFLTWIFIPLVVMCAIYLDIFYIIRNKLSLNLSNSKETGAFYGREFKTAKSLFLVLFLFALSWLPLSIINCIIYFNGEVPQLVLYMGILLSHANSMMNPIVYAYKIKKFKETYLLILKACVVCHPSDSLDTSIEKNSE
The test is described as follows: A3 binding assay ([125I]-AB-MECA radioligand, CHO membranes). The settings on record: [125I]-AB-MECA 0.25 nM. The procedure: Compounds in the present invention were tested in an A3 binding assay using the iodinated ligand [^125I]-AB-MECA with membranes prepared from CHO cells stably expressing human A3 receptors.
Radioligand binding to the CHO A3 membranes was performed using radio-labelled agonist [^125I]-AB-MECA at a concentration range of 0.002-5 nM to obtain saturation binding. Binding experiments were performed in duplicate using 2.5 μg membrane in a total volume of 200 μL of assay buffer. The non-specific binding was determined in the presence of 10 μM of the agonist I-AB-MECA.
The assay was performed in a final volume of 200 μL/well, in a U-bottomed polypropylene 96-well plate. […] Total binding was determined using 50 μL vehicle. Non-specific binding was determined using 50 μL of 40 μM I-AB-MECA, to give a final assay concentration of 10 μM. • 50 μL [^125I]-AB-MECA at a concentration of 1 nM (4×), to give a final assay concentration of 0.25 nM. • 100 μL CHO A3 membranes at a concentration of 25 μg/mL in assay buffer containing 4 U/mL adenosine deamin ase (ADA) (final assay concentration of 2 U/mL), to give a final assay concentration of 2.5 μg/well.
Compound dilution were prepared on a Biomek 2000 to give a series of 10 concentrations from 40-0.002 μM (4×). […] Total binding was determined in the absence of I-AB-MECA and non specific binding in the presence of 10 μM I-AB-MECA. […]

In the next test the target is T2, adenosine A3 receptors (Homo sapiens, UniProt P0DMS8).
T2 construct: expressed in transfected cells; membranes prepared in house
T2 sequence (P0DMS8 1-318): T1 sequence (P0DMS8 1-318)
The test is described as follows: A3 [35S]-GTPGammaS binding functional assay (SPA, CHO membranes). Format: biochemical. The conditions noted are these: agonist stimulation of [35S]-GTPγS binding. How it is done: To establish the functional response to compounds of this invention an assay was carried out measuring A3 agonist stimulation of [^35S]-GTPγS binding in membranes prepared from CHO cells stably expressing adenosine A3 receptors. The agonist-induced stimulation of binding of [^35S]-GTPγS to activated G proteins has been used as a functional assay for a variety of receptors, including adenosine receptors. See Lorenzen et al., Mol Pharmacol, Vol. 49, pp. 915-926 (1996); and Jacobson et al., Drug Dev Res Vol. 37, p. 131 (1996).
The conventional GTPγS binding assay described by Lorenzen et al (1996), supra, is a filtration based method and thus requires a separation step; we have modified this method to run as a SPA format so that it can be used in a semi-automated and homogenous formal. In the SPA assay membranes are captured by wheatgerm agglutinin (WGA) SPA beads, through a specific interaction between WGA and carbohydrate residues of glycoproteins on the surfaces for the membranes. Upon receptor stimulation, [^35S]-GTPγS binds specifically to the alpha subunit of the G-protein thus bringing the [^35S]-GTPγS into close proximity with the SPA beads. Emitted β particles from the [^35S]-GTPγS excite the scintillant in the beads and produce light.
The assay was performed in a final volume of 250 μL/well in a white non-binding surface 96-well Optiplate. […]
(GTPγS resists hydrolysis and so accumulates on activated G proteins.)

With `CNC(=O)[C@H]1O[C@@H](n2cnc3c(NCc4cccc(I)c4)ncnc32)[C@H](O)[C@@H]1O` [IB-MECA], the increase in basal or systemic blood pressure in test [1] (administration of IB-MECA) is 10 to 30%. The “basal or systemic blood pressure after administration” value in test [1] (from about 70 mmHg) is “about 90 mmHg”.
A word on the Ki: it is the equilibrium dissociation constant of an inhibitor or competing ligand from its target. Low readings indicate higher affinity, high ones lower affinity. As a reminder, the EC50 is the concentration that produces a half-maximal response. At human A3 receptors, `CC(=O)N[C@H]1C[C@@H](n2cnc3c(NCc4cccc(I)c4)nc(Cl)nc32)[C@H](O)[C@@H]1O` [Example 1, N-{(1S,2R,3S,4R)-4-[2-Chloro-6-(3-iodobenzylamino)-purin-9-yl]-2,3-dihydroxycyclopentyl}-acetamide] registered a Ki of 0.91 nM. On adenosine A3 receptors, the EC50 came out at 11 nM.
